What all share (assay type): cell-based
For one assay, the target named is T1, OR4X2 (Homo sapiens, UniProt Q8NGF9).
T1 construct: specific primers, which amplify the complete open reading frame; expressed in transfected cells; host or cells: HEK293
T1 sequence (Q8NGF9 1-303): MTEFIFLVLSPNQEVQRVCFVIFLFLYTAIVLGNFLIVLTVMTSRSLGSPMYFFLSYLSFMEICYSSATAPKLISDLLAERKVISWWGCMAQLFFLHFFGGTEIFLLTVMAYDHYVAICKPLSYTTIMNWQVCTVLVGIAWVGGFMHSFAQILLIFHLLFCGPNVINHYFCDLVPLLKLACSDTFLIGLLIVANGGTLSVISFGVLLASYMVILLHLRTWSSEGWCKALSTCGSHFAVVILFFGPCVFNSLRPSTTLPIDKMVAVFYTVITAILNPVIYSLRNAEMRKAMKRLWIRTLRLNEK
The assay is described as follows: Ca-imaging of OR4X2-transfected HEK293 cells. As to conditions: for Response of OR4X2 to odorant, in words: single odorants 200 μM; for Number of cell responses, Experiment (OR4X2): odorant 200 μM, approximately 2000 transfected cells in three times of measuring (Table 4, FIG. 5). On the set-up: key to OR4X2 responded to odorant: ▪: 18 olfactory receptors responded to 32 odorants in related with specific anosmia. The procedure: (§1) HEK293 cells were cultivated in Petri dishes (Ø35 mm) as previously described (Benbernou et al. 2007). We grow up HEK293 cells in culture medium containing standard DMEM with 10% heat-inactivated fetal bovine serum, 2 mM L-glutamine, 100 units/ml penicillin, and 100 units/ml streptomycin in a humidified atmosphere (37° C., 5% CO2). After 2-3 days, the transfection process was carried out, whereby the cell culture was 70-80% confluent. The calciumphosphate method was applied to transfect DNA plasmid transiently in HEK293 cells in case of Ca-imaging method.
(§2) Calcium cations and phosphate anions created crystal precipitations coupled with DNA which could invade into the cells through endocytosis. Cells were transiently transfected with plasmid DNA which consists of pCI expression vector and PCR-amplified full-length cDNA of olfactory receptors candidates, and also Gα15, RTP1, Myr-Ric8A, HSC70, and m-Cherry as cofactors. The precipitation could be created after 15-20 min, with dropping the transfection solution on HEK293 cells. Before measuring by Ca-imaging cells were incubated 48-60 hours at 370 C, 5% CO2. Cationic liposome-mediated transfection method was applied to transfect DNA plasmid transiently in HANA3A cells in case of CRE-Luciferase and CRE-SEAP assays.
(§3) Calcium imaging of the transfected HEK293 cells was done by using chambers determinate an inverted microscope (Olympus; IX70) using a 10× objective (CPIanFL N Olympus). Fluorescence emission was determined every 4 s by using a CCD camera (Charge Coupled Device, C9100 Hamamatsu). The capillary tube which was responsible to supply odorants was generated closely above the cells. The columns filled with odorants, DMSO and ATP. Odorants were manually monitored to drop each 4-5 s to transfected cells. Solutions with drop wise form spread on HEK293 cells in 35 mm dishes.
(§4) In experiments, Fura-2 Acetoxymethylester (Fura-2/AM) was applied. The non-polar Fura2/AM is fluorescent but not yet calcium-sensitive. Once diffuses into cell plasma, Fura-2/AM is hydrolyzed to Fura-2 which is calcium-sensitive and functions as Ca2+ chelator. Regardless of the presence of calcium, Fura-2 emits at the wavelength of 510 nm. Once Fura-2 binds to free intracellular Ca2+ in cell plasma, its ratio of excitation at wavelengths of 340 nm and 380 nm is changed and correlated to the amount of intracellular Ca2+. According to this feature, the analysis of 340/380 nm excitation ratio for Fura-2 allows to quantify intracellular calcium levels.
(§5) In preparation for Ca-imaging measurements, transfected HEK293 cells were added 3 it Fura2/AM (3 μM) and incubated 30-45 min at 370 C, 5% CO2. After this step, experiments were carried out in a dark condition (Fura-2 is light-sensitive). After the incubation, medium of cell culture was replaced with 2 ml Ringer's solution.
(§6) Odorants were freshly prepared with DMSO as 1 M stocks solutions. Six mixtures (200 μM each chemical) were applied to cells sequentially (20 s each mixture/30 s Ringer). Those ORs tested with single odorants that had generated a response to odorant mixture group previously. Odorants were prepared in 100-200 μM concentration.
(§7) Ringer's solution was used for washing cells between measuring by two different odorants. Positive response was determined by the timing of the response, the strength of the response (more than twofold higher than the noise amplitude of the baseline), and the shape of the response curve (sharp rise in curve with gradual recovery). The typical shape of response curves was established by observing responses to repeated stimulation with 200 μM of odorants. After testing with single odorants at 100 μM, stimulating odorants were often retested at 200 μM concentrations. To confirm the result of every receptor that produced a significant response curves, the experiment was repeated for twelve times. Finally, cells were exposed to ATP (0.25 mM) which could activate P2Y receptor channel and induce Ca2+ influx into cells. […]

The target in a further assay is T2, OR1B1 (Homo sapiens, UniProt Q8NGR6).
T2 construct: specific primers, which amplify the complete open reading frame; expressed in transfected cells; host or cells: HEK293
T2 sequence (Q8NGR6 1-317): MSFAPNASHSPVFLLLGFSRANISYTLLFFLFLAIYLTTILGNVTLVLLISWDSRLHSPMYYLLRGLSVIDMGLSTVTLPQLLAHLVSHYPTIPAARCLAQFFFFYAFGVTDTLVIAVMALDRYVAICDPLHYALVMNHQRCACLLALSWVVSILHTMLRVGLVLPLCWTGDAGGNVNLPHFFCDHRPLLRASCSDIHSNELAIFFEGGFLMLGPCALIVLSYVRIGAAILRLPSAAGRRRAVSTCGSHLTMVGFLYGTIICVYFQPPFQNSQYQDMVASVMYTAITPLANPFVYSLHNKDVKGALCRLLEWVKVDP
The assay is described as follows: Ca-imaging of OR1B1-transfected HEK293 cells. Also noted: key to OR1B1 responded to odorant: ▪: 18 olfactory receptors responded to 32 odorants in related with specific anosmia. Particulars: for Number of cell responses, Experiment (OR1B1): odorant 200 μM, approximately 2000 transfected cells in three times of measuring (Table 4, FIG. 5). The procedure: as §1, §2, §3, §4, §5, §6, §7

Assay [1] deals with HEK293 cells transfected with all cofactors and pCI plasmids without ORs. The assay is described as follows: Ca-imaging of control HEK293 cells without OR. As to conditions: odorant 200 μM, three times of measuring (Table 4, FIG. 5). The method, then: as §1, §2, §3, §4, §5, §6, §7
Another assay addresses T3, OR10A6 (Homo sapiens, UniProt Q8NH74).
T3 construct: specific primers, which amplify the complete open reading frame; expressed in transfected cells; host or cells: HEK293
T3 sequence (Q8NH74 1-314): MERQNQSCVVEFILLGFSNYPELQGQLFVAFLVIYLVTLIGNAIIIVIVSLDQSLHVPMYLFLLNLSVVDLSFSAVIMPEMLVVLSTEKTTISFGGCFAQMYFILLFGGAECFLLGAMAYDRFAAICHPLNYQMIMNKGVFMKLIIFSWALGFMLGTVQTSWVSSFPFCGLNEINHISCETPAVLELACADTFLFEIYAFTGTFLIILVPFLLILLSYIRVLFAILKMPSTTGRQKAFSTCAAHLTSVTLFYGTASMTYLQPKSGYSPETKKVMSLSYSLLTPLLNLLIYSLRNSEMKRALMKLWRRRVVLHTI
The assay is described as follows: Ca-imaging of OR10A6-transfected HEK293 cells. On the set-up: key to OR10A6 responded to odorant: ▪: 18 olfactory receptors responded to 32 odorants in related with specific anosmia. The procedure: as §1, §2, §3, §4, §5, §6
Ringer's solution was used for washing cells between measuring by two different odorants. Positive response was determined by the timing of the response, the strength of the response (more than twofold higher than the noise amplitude of the baseline), and the shape of the response curve (sharp rise in curve with gradual recovery). […]

A further assay addresses T4, OR8D2 (Homo sapiens, UniProt Q9GZM6).
T4 construct: specific primers, which amplify the complete open reading frame; expressed in transfected cells; host or cells: HEK293
T4 sequence (Q9GZM6 1-311): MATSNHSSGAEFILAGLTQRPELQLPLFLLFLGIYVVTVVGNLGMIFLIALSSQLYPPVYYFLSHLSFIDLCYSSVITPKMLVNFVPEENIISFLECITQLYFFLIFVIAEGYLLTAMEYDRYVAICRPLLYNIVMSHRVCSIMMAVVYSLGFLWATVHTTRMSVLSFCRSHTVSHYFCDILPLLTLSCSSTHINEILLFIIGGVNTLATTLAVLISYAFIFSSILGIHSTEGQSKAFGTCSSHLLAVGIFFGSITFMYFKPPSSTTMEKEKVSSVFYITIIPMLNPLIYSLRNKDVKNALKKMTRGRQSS
The assay is described as follows: Ca-imaging of OR8D2-transfected HEK293 cells. Also noted: key to OR8D2 responded to odorant: ▪: 18 olfactory receptors responded to 32 odorants in related with specific anosmia. The method, then: as §1, §2, §3, §4, §5, §6, §7

The target in the next assay is T5, OR8B4 (Homo sapiens, UniProt Q96RC9).
T5 construct: specific primers, which amplify the complete open reading frame; expressed in transfected cells; host or cells: HEK293
T5 sequence (Q96RC9 1-309): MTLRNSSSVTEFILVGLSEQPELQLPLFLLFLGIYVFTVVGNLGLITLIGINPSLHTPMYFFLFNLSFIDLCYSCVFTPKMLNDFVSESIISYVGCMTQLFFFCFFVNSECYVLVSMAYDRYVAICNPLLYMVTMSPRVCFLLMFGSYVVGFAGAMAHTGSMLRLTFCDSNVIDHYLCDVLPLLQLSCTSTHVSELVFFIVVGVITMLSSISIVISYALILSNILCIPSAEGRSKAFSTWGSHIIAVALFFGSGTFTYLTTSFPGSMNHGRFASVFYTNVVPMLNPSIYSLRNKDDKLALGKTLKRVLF
The assay is described as follows: Ca-imaging of OR8B4-transfected HEK293 cells. Also noted: key to OR8B4 responded to odorant: ▪: 18 olfactory receptors responded to 32 odorants in related with specific anosmia. Particulars: for OR8B4 responded to odorant / Response of OR8B4 to odorant, in words: Ca-imaging; for OR8B4 responded to odorant: HEK293 cells, individual odorant 200 μM, significant response p<0.05; for Response of OR8B4 to odorant, in words: single odorants 200 μM; for Number of cell responses (OR8B4): odorant 200 μM, approximately 2000 transfected cells in three times of measuring (FIG. 5). The procedure:
as §1, §2, §3, §4, §5, §6, §7

[2] abbreviates: Ca-imaging, HEK293 cells, individual odorant 200 μM, significant response p<0.05.
Setting [3] is: Ca-imaging, single odorants 200 μM.

Entries after “also recorded” stand apart in the source; their conditions may differ.

Turning to `NCC(=O)c1ccccc1` [2-aminoacetophenon, 2-Aminoacetophenone], the “OR4X2 responded to odorant” value on OR4X2 (setting [2]) is listed as “▪”. The “Response of OR4X2 to odorant, in words” value on OR4X2 (Ca-imaging) is on record as “could be the receptor”; at OR4X2 (Ca-imaging, listed as 2-aminoacetophenone) it was “responded”. The “Number of cell responses, Experiment (OR4X2)” value (from here on “Number … (OR4X2)”) at OR4X2 is reported as 20.
For the compound `Cc1occc(=O)c1O` [3-Hydroxy-2-Methyl-4-Pyran, 3-Hydroxy-2-Methyl-4-Pyran-4-one], the “OR1B1 responded to odorant” value on OR1B1 (setting [2]) is given as “▪”. For the same compound, the “Response of OR1B1 to odorant, in words” value at OR1B1 (setting [3]) is “significantly (P<0.05) activated”. Further, the “Number of cell responses, Experiment (OR1B1)” value was 35 at OR1B1 (listed as 3-Hydroxy-2-methyl-4-pyranone) and 9 on OR1B1 (listed as 3-hydroxy-2-methyl-4-pyrane). For the same compound, the “Number of cell responses, Control” value in assay [1] is on record as 5.
With `CCCCCCO` [Alcohol C6], the “OR10A6 responded to odorant” value on OR10A6 (HEK293 cells, individual odorant 200 μM, significant response p<0.05) is given as “▪”. Moreover, the “Response of OR10A6 to odorant, in words” value on OR10A6 (single odorants 200 μM) is recorded as “elicited a response; also recorded: detected”. Also, at OR8D2 (setting [2]), the “OR8D2 responded to odorant” value was “▪”. Moreover, the “Response of OR8D2 to odorant, in words” value at OR8D2 (setting [3]) was “elicited a response; also recorded: significantly activated; also recorded: detected”. Also, the “Number of cell responses, Experiment (OR8D2)” value at OR8D2 (odorant 200 μM, approximately 2000 transfected cells in three times of measuring (Table 4, FIG. 5)) came out at 9.
For `CCCCCC=O` [Aldehyde C6, Aldehyd C6], on OR8B4, the “OR8B4 responded to odorant” value is “▪”; the “Response of OR8B4 to odorant, in words” value is reported as “responded significantly”; the “Number of cell responses (OR8B4)” value was found to be 8. For the same compound, the “Number of cell responses, Control” value in assay [1] was 0. The “Number … (OR4X2)” value at OR4X2 is reported as 8.
On to `COc1ccc(C=O)cc1` [Anisic aldehyde, Anisic Aldehyde], for which, on OR8B4, the “OR8B4 responded to odorant” value is recorded as “▪”; the “Response of OR8B4 to odorant, in words” value is recorded as “responded significantly”; the “Number of cell responses (OR8B4)” value stood at 14. For the same compound, the “Number of cell responses, Control” value in assay [1] stood at 0. At OR4X2, the “Number … (OR4X2)” value is 14.

The values are drawn from patent US9939427B2, “Method for evaluating the scent performance of perfumes or perfume mixtures” (Symrise AG, priority 2013, dated 2018).
